Tested on: Dengue virus
Test: Inhibition of Dengue virus NS5MTase assessed as methylation of 7MeGpppAC5 at 100 uM
For `CC[C@@H](C)[C@H](NS(=O)(=O)c1ccc(C)cc1)C(=O)Oc1cc2oc(=O)cc(-c3ccccc3)c2cc1Cl`, the inhibition was 5%.
Work on `CC[C@@H](C)[C@H](NS(=O)(=O)c1ccc(C)cc1)C(=O)Oc1ccc2c(-c3ccc(OC)cc3)cc(=O)oc2c1` yielded an inhibition of 5%.
For `CN(C)S(=O)(=O)c1ccc(Cl)c(NC(=O)COC(=O)CNC(=O)CC23CC4CC(CC(C4)C2)C3)c1`, the inhibition was 5%.
With `O=C(O)[C@H]1CCCC[C@@H]1C(=O)N[C@H]1CCCC[C@@H]1NC(=O)[C@@H]1CCCC[C@H]1C(=O)O` the inhibition was 5%.
With `Cc1cc2oc(=O)cc(COC(=O)CN3C(=O)N[C@]4(C[C@H](C)CC(C)(C)C4)C3=O)c2cc1C(C)C` the inhibition was 5%.
`C[n+]1cn(CCCCCCn2cc([C@@H](O)c3ccccc3)[n+](C)c2)cc1[C@@H](O)c1ccccc1` gave an inhibition of 5%.
Compound `COC(=O)[C@@H](Cc1ccccc1)NC(=O)NC12CC3CC(C1)CC(c1ccc(C)cc1)(C3)C2` has an inhibition of 5%.
`CCOC(=O)Cn1c(=O)n(C[C@H]2CC[C@H](C(=O)NCCc3ccccc3)CC2)c(=O)c2ccccc21` gave an inhibition of 5%.
`Cc1ccc(S(=O)(=O)N2CCCCC2)cc1NC(=O)COC(=O)CN1C(=O)N[C@@]2(C[C@H](C)CC(C)(C)C2)C1=O` showed an inhibition of 5%.
Compound `O=C(N[C@@H](Cc1ccccc1)C(=O)O)c1ccc(C(=O)N[C@H](Cc2ccccc2)C(=O)O)cc1` has an inhibition of 5%.
`Cc1ccc(C23CC4CC(CC(NC(=O)N[C@@H](Cc5ccccc5)C(=O)O)(C4)C2)C3)cc1` showed an inhibition of 75%.
With `CC[C@@H](C)[C@H](NS(=O)(=O)c1ccc(C)cc1)C(=O)Oc1ccc2c(c1)oc(=O)c1cc(OC)ccc12` the inhibition was 5%.
With `N[C@H](C(=O)O)[C@@H](O)c1ccc(OCc2ccccc2)c(OCc2ccccc2)c1` the inhibition was 5%.
In the case of `O=C(Oc1cccc(NC2=NS(=O)(=O)c3ccccc32)c1)c1ccc(S(=O)(=O)N2CCCCC2)cc1`, the inhibition is reported as 5%.
For `CC(C)[C@@H](N)C(=O)NC[C@H]1CC[C@@H](C(=O)N[C@@H](Cc2ccccc2)C(=O)O)CC1`, the inhibition was 5%.

Tested on: not listed separately
Test: Inhibition of Dengue virus NS5MTase assessed as methylation of 7MeGpppAC5
`Cc1ccc(C23CC4CC(CC(NC(=O)N[C@@H](Cc5ccccc5)C(=O)O)(C4)C2)C3)cc1` showed an IC50 of 60.5 µM.
